According to patent US20230242591A1, “REGULATORY T CELL EPITOPES AND D[…]-COV-2 ANTIGENS” (EPIVAX, INC., priority 2020, published 2023):

Test system: CD4+ effector memory T cells
Format: cell-based, human

Question: With “PSFYVYSRVKNLNSSRVPDLLV (Severe acute respiratory syndrome coronavirus 2) [SEQ ID NO: 7]” as the sequence, how does the “suppression of proliferation and activation of CD4+ effector T cells” value read?
Answer: The value was “Suppressed Proliferation and Activation”.
